Test [1] has as its system cultured product composed of cell masses containing hiPSC-Neuron and astrocytes derived from a human fetus. The experiment in a line: Evaluation of electrophysiological neurotoxicity of test compound: firing frequency response on MEA plate. The format is cell-based. The settings on record: spontaneous firing frequency before exposure 200 Hz or more per 16 electrodes; compared with 4 times or more at 4 to <100 Hz; FIG. 10. The method, then:
A multi-electrode array (MEA) plate was prepared as a cell-containing container which is a cell-containing structure of the present embodiment.
As a plate used for the MEA plate, CytoView MEA Plate (commercially available from Axion Biosystems) having 6×8 wells (a total of 48 wells) and a micro electrode array on the well bottom was used. […]
In the main test, the action potential of neurons adhered onto a micro electrode 3 arranged on the well bottom as shown in FIG. 1 was measured as an extracellular potential, and the neurotoxicity was evaluated from the change in extracellular potential when the test compound was treated. […]
That is, using maestro Pro (commercially available from Axion Biosystems), for the prepared MEA Cytoview Plate (commercially available from Axion Biosystems), the results of the extracellular potential of the cultured product 2 composed of cell masses containing hiPSC-Neuron and astrocytes derived from a human fetus, which were adhered to the well bottom 1 shown in FIG. 1 and FIG. 2, measured using maestro Pro for 10 minutes are illustrated as a raster plot 6 of FIG. 3 and a graph 7 of the number of detected spikes. […] The spontaneous firing frequency (Hz) can be detected from the number of peaks in the graph […]. […]

For test [2] the test system is unchanged. The experiment in a line: Pharmacological test with anti-epileptic drugs on MEA plate (extracellular potential, raster plot, number of spikes). The format is cell-based. The settings on record: Before vs After drug exposure; FIGS. 6-8. The method, then: From 22 days after cell seeding, once a week, extracellular potential data was acquired for 10 minutes using an extracellular measurement device maestro (Axion Biosystems).
That is, using maestro Pro (commercially available from Axion Biosystems), for the prepared MEA Cytoview Plate (commercially available from Axion Biosystems), the results of the extracellular potential of the cultured product 2 composed of cell masses containing hiPSC-Neuron and astrocytes derived from a human fetus, which were adhered to the well bottom 1 shown in FIG. 1 and FIG. 2, measured using maestro Pro for 10 minutes are illustrated as a raster plot 6 of FIG. 3 and a graph 7 of the number of detected spikes. […] The spontaneous firing frequency (Hz) can be detected from the number of peaks in the graph 7 per hour.
Using the plate produced in Experimental Example 1, a pharmacological test was performed using various drugs. The effect of the drug was confirmed by exposing an anti-epileptic drug having a function of inhibiting nerve firing to a sample. The evaluated drugs were Carbamazepine, Phenytoin, and Zonisamide, and the measurement was performed under the same conditions as the measurement of the extracellular potential data of Experimental Example 1.
A graph of a raster plot that visualizes the firing state and the number of detected. spikes for each drug is shown for Carbamazepine in FIG. 6, Phenytoin in FIG. 7, and Zonisamide in FIG. 8. Before in the drawings indicates before drug exposure, and After indicates after drug exposure. In all of the drugs, it was observed that the spontaneous firing frequency that could be detected from the number of spikes after drug exposure was reduced, and the mode in which that firing activity of the nerve was reduced after drug exposure was confirmed. That is, it was observed that the plate of this example could be used for detection in the pharmacological test using various drugs.

On to `Nc1ccncc1` [4-AP], for which the “response rate to the test compound (firing frequency after exposure)” value in test [1] is on record as “about half that”.

Turning to `NC(=O)N1c2ccccc2C=Cc2ccccc21` [Carbamazepine], the “spontaneous firing frequency detected from the number of spikes after drug exposure” value (shortened to “spontaneous firing frequency detected”) in test [2] is reported as “reduced”.

Regarding `O=C1NC(=O)C(c2ccccc2)(c2ccccc2)N1` [Phenytoin], in test [2], the “spontaneous firing frequency detected” value was “reduced”.

With `CC[C@@H]1C(=O)OC[C@@H]1Cc1cncn1C` [Pilocarpine], the “response rate to the test compound (firing frequency after exposure)” value in test [1] is recorded as “about half that”.

Consider `NS(=O)(=O)Cc1noc2ccccc12` [Zonisamide], for which, in test [2], the “spontaneous firing frequency detected” value is “reduced”.

The values are drawn from US12698473B2, “Cell-containing structure” (Ricoh Company, Ltd., priority 2021, dated 2026).
